{"source": "ChEMBL document CHEMBL4354830", "about": "“Discovery of Benzo[cd]indol-2(1H)-ones and Pyrrolo[4,3,2-de]quinolin-2(1H)-ones as Bromodomain and Extra-Terminal Domain (BET) Inhibitors with Selectivity for the First Bromodomain with Potential High Efficiency against Acute Gouty Arthritis” (J Med Chem, 2019)", "key": {"Rattus norvegicus [1]": {"system": "Rattus norvegicus", "experiment": "In vivo inhibition of MSU-induced NF-kappaB P65 phosphorylation in synovial tissue of Sprague-Dawley rat model of acute gout arthritis at 1 mg/kg, ia administered 1 hr before MSU challenge and measured upto 24 hrs by Western blot analysis", "type": "functional, organism-based"}, "[2]": {"experiment": "Metabolic stability in dog liver microsomes assessed as intrinsic clearance measured per mg protein upto 60 mins by LC/MS-MS analysis", "type": "ADME, Canis lupus familiaris, Microsome", "conditions": "read-out: CLH"}, "[3]": {"molecular_target": "Bromodomain-containing protein 3 (Homo sapiens, UniProt Q15059)", "sequence (Q15059 whole entry)": "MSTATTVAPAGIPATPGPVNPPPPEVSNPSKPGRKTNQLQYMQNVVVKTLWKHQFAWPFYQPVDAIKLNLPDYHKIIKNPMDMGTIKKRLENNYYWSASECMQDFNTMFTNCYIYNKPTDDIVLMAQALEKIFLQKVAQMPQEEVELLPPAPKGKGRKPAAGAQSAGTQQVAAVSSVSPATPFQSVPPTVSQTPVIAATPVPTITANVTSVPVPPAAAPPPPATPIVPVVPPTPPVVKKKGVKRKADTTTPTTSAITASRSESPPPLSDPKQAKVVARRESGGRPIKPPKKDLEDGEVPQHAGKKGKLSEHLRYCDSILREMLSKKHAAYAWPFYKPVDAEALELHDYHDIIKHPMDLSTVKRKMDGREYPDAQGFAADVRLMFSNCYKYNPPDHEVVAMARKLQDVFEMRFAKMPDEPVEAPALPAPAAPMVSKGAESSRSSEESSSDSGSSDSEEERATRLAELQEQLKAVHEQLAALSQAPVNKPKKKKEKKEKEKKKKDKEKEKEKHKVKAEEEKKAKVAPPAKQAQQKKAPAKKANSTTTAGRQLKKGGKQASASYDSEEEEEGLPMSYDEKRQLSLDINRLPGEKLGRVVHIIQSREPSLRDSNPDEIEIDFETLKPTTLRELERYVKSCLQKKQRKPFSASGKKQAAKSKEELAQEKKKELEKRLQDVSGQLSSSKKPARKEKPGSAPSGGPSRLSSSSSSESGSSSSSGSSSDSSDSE", "experiment": "Displacement of tetra-acetylated histone H4 peptide (1-21) from BRD3 BD2 (unknown origin) incubated for 30 mins followed by further incubation with tetra-acetylated histone H4 peptide (1-21) for 30 mins by Alphascreen assay"}, "[4]": {"molecular_target": "Bromodomain-containing protein 2 (Homo sapiens, UniProt P25440)", "sequence (P25440 whole entry)": "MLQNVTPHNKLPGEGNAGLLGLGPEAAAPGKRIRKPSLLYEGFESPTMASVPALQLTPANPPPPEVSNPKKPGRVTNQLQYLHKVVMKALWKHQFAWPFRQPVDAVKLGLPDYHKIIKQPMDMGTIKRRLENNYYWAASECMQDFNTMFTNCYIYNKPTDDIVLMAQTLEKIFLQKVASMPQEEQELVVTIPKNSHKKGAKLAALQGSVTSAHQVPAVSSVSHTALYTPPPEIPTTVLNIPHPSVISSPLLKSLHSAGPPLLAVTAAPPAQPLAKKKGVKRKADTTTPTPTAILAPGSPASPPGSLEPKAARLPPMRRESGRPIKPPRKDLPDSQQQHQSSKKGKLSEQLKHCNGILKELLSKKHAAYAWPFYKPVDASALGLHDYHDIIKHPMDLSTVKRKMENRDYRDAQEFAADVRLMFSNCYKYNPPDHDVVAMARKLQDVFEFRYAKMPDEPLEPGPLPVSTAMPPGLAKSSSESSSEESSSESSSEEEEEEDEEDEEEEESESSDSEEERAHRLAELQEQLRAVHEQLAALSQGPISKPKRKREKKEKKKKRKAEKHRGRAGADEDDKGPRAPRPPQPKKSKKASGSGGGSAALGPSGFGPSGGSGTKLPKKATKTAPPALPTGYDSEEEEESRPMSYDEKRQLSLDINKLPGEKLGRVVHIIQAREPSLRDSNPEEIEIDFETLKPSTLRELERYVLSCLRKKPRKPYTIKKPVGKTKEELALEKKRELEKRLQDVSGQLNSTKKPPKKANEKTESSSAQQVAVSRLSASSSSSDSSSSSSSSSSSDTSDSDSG", "experiment": "Displacement of tetra-acetylated histone H4 peptide (1-21) from BRD2 BD1 (unknown origin) incubated for 30 mins followed by further incubation with tetra-acetylated histone H4 peptide (1-21) for 30 mins by Alphascreen assay"}, "[5]": {"molecular_target": "T1, Bromodomain-containing protein 4 (Homo sapiens, UniProt O60885)", "experiment": "Inhibition of MSU-induced BRD4 expression in human THP1 cells at 1 uM incubated for 1 hr followed by MSU treatment and measured after 12 hrs by Western blot analysis", "type": "cell-based"}, "Rattus norvegicus [6]": {"system": "Rattus norvegicus", "experiment": "In vivo inhibition of MSU-induced BRD4 expression in synovial tissue of Sprague-Dawley rat model of acute gout arthritis at 1 mg/kg, ia administered 1 hr before MSU challenge and measured upto 24 hrs by Western blot analysis", "type": "functional, organism-based"}, "[7]": {"experiment": "Permeability of compound at 10 uM by PAMPA assay", "type": "ADME", "conditions": "read-out: permeability"}, "Rattus norvegicus [8]": {"system": "Rattus norvegicus", "experiment": "Anti-arthritic activity in Sprague-Dawley rat model of acute gout arthritis assessed as reduction in MSU-induced IL-1beta level in synovial tissue at 1 mg/kg, ia administered 1 hr before MSU challenge and measured upto 24 hrs by ELISA", "type": "functional, organism-based"}, "[9]": {"molecular_target": "T1, Bromodomain-containing protein 4", "experiment": "Binding affinity to immobilized DNA-tagged human BRD4 BD1 by BROMOscan analysis"}, "Rattus norvegicus [10]": {"system": "Rattus norvegicus", "experiment": "Anti-arthritic activity in Sprague-Dawley rat model of acute gout arthritis assessed as reduction in MSU-induced neutrophil infiltration in synovial tissue at 1 mg/kg, ia administered 1 hr before MSU challenge and measured upto 24 hrs hematoxylin and eosin staining based histopathological analysis", "type": "functional, organism-based"}, "[11]": {"experiment": "Metabolic stability in rat liver microsomes assessed as intrinsic clearance measured per mg protein upto 60 mins by LC/MS-MS analysis", "type": "ADME, Microsome", "conditions": "read-out: CLH"}, "[12]": {"molecular_target": "T1, Bromodomain-containing protein 4", "experiment": "Inhibition of BRD4 BD1 in human THP1 cells assessed as inhibition of MSU-induced pyroptosis by measuring caspase-/PI- cells at 1 uM incubated for 1 hr followed by MSU treatment and measured after 12 hrs by PI/caspase 1 double staining based flow cytometric analysis (reference value: 76.2 %)", "type": "cell-based", "set-up": "scale not given: the % may be the effect or the level left"}, "Rattus norvegicus [13]": {"system": "Rattus norvegicus", "experiment": "In vivo inhibition of MSU-induced ASC activation in synovial tissue of Sprague-Dawley rat model of acute gout arthritis at 1 mg/kg, ia administered 1 hr before MSU challenge and measured upto 24 hrs by immunofluorescence based confocal microscopy analysis", "type": "functional, organism-based"}, "[14]": {"experiment": "Metabolic stability in monkey liver microsomes assessed as half life measured upto 60 mins by LC/MS-MS analysis", "type": "ADME, Macaca mulatta, Microsome", "conditions": "rhesus monkey"}, "Rattus norvegicus [15]": {"system": "Rattus norvegicus", "experiment": "Anti-arthritic activity in Sprague-Dawley rat model of acute gout arthritis assessed as reduction in MSU-induced joint swelling at 1 mg/kg, ia administered 1 hr before MSU challenge and measured upto 24 hrs", "type": "functional, organism-based"}, "[16]": {"experiment": "Metabolic stability in human liver microsomes assessed as intrinsic clearance measured per mg protein upto 60 mins by LC/MS-MS analysis", "type": "ADME, Microsome", "conditions": "read-out: CLH"}, "Homo sapiens [17]": {"organism": "Homo sapiens", "experiment": "Selectivity index, ratio of IC50 for BRD3 BD1 (unknown origin) to IC50 for recombinant human N-terminal His-tagged BRD4 BD1 (44 to 170 residues) expressed in Escherichia coli by AlphaScreen assay"}, "[18]": {"experiment": "Metabolic stability in dog liver microsomes assessed as half life measured upto 60 mins by LC/MS-MS analysis", "type": "ADME, Canis lupus familiaris, Microsome"}, "RAW264.7": {"system": "RAW264.7", "experiment": "Inhibition of LPS-induced NO overproduction in mouse RAW264.7 cells at 1 uM incubated for 2 hrs followed by LPS stimulation and measured after 22 hrs by Griess reagent based assay relative to control", "type": "functional", "conditions": "Mus musculus, RAW264.7"}, "Rattus norvegicus [19]": {"system": "Rattus norvegicus", "experiment": "(§1) In vivo inhibition of MSU-induced pyroptosis in Sprague-Dawley rat model of acute gout arthritis assessed as caspase+/PI+ macrophage cells in synovial tissue at 1 mg/kg, ia administered 1 hr before MSU challenge and measured upto 24 hrs by PI staining based flow cytometric analysis (reference value: 5.79 %)", "type": "functional", "set-up": "scale not given: the % may be the effect or the level left"}, "[20]": {"molecular_target": "Bromodomain testis-specific protein (Homo sapiens, UniProt Q58F21)", "experiment": "Displacement of tetra-acetylated histone H4 peptide (1-21) from BRDT BD1 (unknown origin) incubated for 30 mins followed by further incubation with tetra-acetylated histone H4 peptide (1-21) for 30 mins by Alphascreen assay"}, "Homo sapiens [21]": {"organism": "Homo sapiens", "experiment": "Selectivity index, ratio of IC50 for BRDT BD1 (unknown origin) to IC50 for recombinant human N-terminal His-tagged BRD4 BD1 (44 to 170 residues) expressed in Escherichia coli by AlphaScreen assay"}, "[22]": {"molecular_target": "T1, Bromodomain-containing protein 4", "experiment": "Binding affinity to immobilized DNA-tagged human BRD4 BD2 by BROMOscan analysis"}, "[23]": {"molecular_target": "T1, Bromodomain-containing protein 4", "experiment": "Inhibition of BRD4 BD1 in human THP1 cells assessed as inhibition of MSU-induced co-localization of NLRP3 and ASC at 1 uM incubated for 1 hr followed by MSU treatment and measured after 12 hrs by immunofluorescence based confocal microscopy analysis", "type": "cell-based"}, "[24]": {"experiment": "Metabolic stability in human assessed as intrinsic hepatic clearance by LC/MS-MS analysis", "type": "ADME", "conditions": "read-out: CLH"}, "[25]": {"molecular_target": "T1, Bromodomain-containing protein 4", "experiment": "Inhibition of BRD4 BD1 in human THP1 cells assessed as inhibition of MSU-induced ASC activation at 1 uM incubated for 1 hr followed by MSU treatment and measured after 12 hrs by immunofluorescence based confocal microscopy analysis", "type": "cell-based"}, "Homo sapiens [26]": {"organism": "Homo sapiens", "experiment": "Selectivity index, ratio of IC50 for BRPF1b (unknown origin) to IC50 for recombinant human N-terminal His-tagged BRD4 BD1 (44 to 170 residues) expressed in Escherichia coli by AlphaScreen assay"}, "Rattus norvegicus [27]": {"system": "Rattus norvegicus", "experiment": "In vivo inhibition of MSU-induced NLRP3 and ASC co-localization in synovial tissue of Sprague-Dawley rat model of acute gout arthritis at 1 mg/kg, ia administered 1 hr before MSU challenge and measured upto 24 hrs by immunofluorescence based confocal microscopy analysis", "type": "functional, organism-based"}, "Homo sapiens [28]": {"organism": "Homo sapiens", "experiment": "Selectivity index, ratio of IC50 for BRD3 BD2 (unknown origin) to IC50 for recombinant human N-terminal His-tagged BRD4 BD1 (44 to 170 residues) expressed in Escherichia coli by AlphaScreen assay"}, "Rattus norvegicus [29]": {"system": "Rattus norvegicus", "experiment": "In vivo inhibition of MSU-induced NLRP3 inflammasome in synovial tissue of Sprague-Dawley rat model of acute gout arthritis at 1 mg/kg, ia administered 1 hr before MSU challenge and measured upto 24 hrs by Western blot analysis", "type": "functional, organism-based"}, "Rattus norvegicus [30]": {"system": "Rattus norvegicus", "experiment": "as §1, with “caspase+/PI-” for “caspase+/PI+”, “21.9” for “5.79”", "type": "functional", "set-up": "scale not given: the % may be the effect or the level left"}, "[31]": {"molecular_target": "T1, Bromodomain-containing protein 4", "experiment": "Inhibition of BRD4 BD1 in human THP1 cells assessed as Inhibition of MSU-induced IL-1beta secretion at 1 uM incubated for 1 hr followed by MSU treatment and measured after 12 hrs by ELISA", "type": "cell-based"}}, "note": "pIC50, pKd: −log10 of the molar value. The source made the active and inactive calls. The calls are words filed in the database; no cut-off is given here."}
{"smiles": "COc1ccccc1S(=O)(=O)Nc1ccc2c3c(cc(-n4cnc(C)c4)nc13)C(=O)N2C", "values": [{"measurement": "inhibition", "setting": "Rattus norvegicus [1]", "result": "Active"}, {"measurement": "microsomal CLint", "setting": "[2]", "result": 133, "unit": "µL/min/mg"}, {"measurement": "pIC50", "setting": "[3]", "result": 4.30}, {"measurement": "pIC50", "setting": "[4]", "result": 5.05}, {"measurement": "inhibition", "setting": "[5]", "result": "Active"}, {"measurement": "inhibition", "setting": "Rattus norvegicus [6]", "result": "Active"}, {"measurement": "Papp at 10 µM", "setting": "[7]", "result": 0.117, "unit": "×10⁻⁶ cm/s"}, {"measurement": "inhibition", "setting": "Rattus norvegicus [8]", "result": "Active"}, {"measurement": "pKd", "setting": "[9]", "result": 6.98}, {"measurement": "inhibition", "setting": "Rattus norvegicus [10]", "result": "Active"}, {"measurement": "microsomal CLint", "setting": "[11]", "result": 147, "unit": "µL/min/mg"}, {"measurement": "Activity", "setting": "[12]", "result": 86.6, "unit": "%"}, {"measurement": "inhibition", "setting": "Rattus norvegicus [13]", "result": "Active"}, {"measurement": "half-life", "setting": "[14]", "result": 10.3, "unit": "min"}, {"measurement": "inhibition", "setting": "Rattus norvegicus [15]", "result": "Active"}, {"measurement": "microsomal CLint", "setting": "[16]", "result": 93.5, "unit": "µL/min/mg"}, {"measurement": "Ratio IC50", "setting": "Homo sapiens [17]", "result": 2.8}, {"measurement": "half-life", "setting": "[18]", "result": 10.4, "unit": "min"}, {"measurement": "inhibition at 1 µM", "setting": "RAW264.7", "result": 102, "unit": "%"}, {"measurement": "Activity", "setting": "Rattus norvegicus [19]", "result": 1.03, "unit": "%"}, {"measurement": "pIC50", "setting": "[20]", "result": 6.45}, {"measurement": "Ratio IC50", "setting": "Homo sapiens [21]", "result": 4.1}, {"measurement": "pKd", "setting": "[22]", "result": "< 4.60"}, {"measurement": "inhibition", "setting": "[23]", "result": "Active"}, {"measurement": "CLint scaled", "setting": "[24]", "result": 88.4, "unit": "mL/min/kg"}, {"measurement": "inhibition", "setting": "[25]", "result": "Active"}, {"measurement": "Ratio IC50", "setting": "Homo sapiens [26]", "result": 6.5}, {"measurement": "inhibition", "setting": "Rattus norvegicus [27]", "result": "Active"}, {"measurement": "Ratio IC50", "setting": "Homo sapiens [28]", "result": 568}, {"measurement": "inhibition", "setting": "Rattus norvegicus [29]", "result": "Active"}, {"measurement": "Activity", "setting": "Rattus norvegicus [30]", "result": 0.43, "unit": "%"}, {"measurement": "inhibition", "setting": "[31]", "result": "Active"}]}
